A short description of data set [1]: in vitro. The following applies: human, WI38 normal lung fibroblast cells, 24 hours with peptide.
For data set [2], the system named is P. aeruginosa H374. The data set is classed as cell-based, Pseudomonas aeruginosa. The conditions noted are these: for FIC Index: 0.5 or less = synergy. The procedure:
(§1) The synergistic effects of the inventive peptides with either chloramphenicol or nalidixic acid against efflux mutants of Pseudomonas aeruginosa were investigated. The MIC values were determined for either nalidixic acid or chloramphenicol alone as baselines. Peptides were added at their ¼ MIC concentration, and the concentration of either nalidixic acid or chloramphenicol to arrive at the MIC was determined. […] The fractional inhibitory concentration (FIC) index was used to determine synergy between peptides and antibiotics. Two-fold serial dilutions of antibiotic were tested in the presence of a constant amount of peptide, equal to one quarter of peptide MIC. The FIC index was determined as follows: FIC=0.25+MICantibiotic in combination/MICantibiotic alone. An FIC index of 0.5 or less is considered as synergy.

A further data set has as its system P. aeruginosa. In kind it is cell-based, Pseudomonas aeruginosa. The conditions noted are these: P. aeruginosa H744; MIC of nalidixic acid with peptide at ¼ MIC. The procedure:
as §1

A short description of data set [3]: in vitro. In kind it is cell-based, human. The conditions noted are these: human, human red blood cells, pH 7, hemolytic assay, concentration at 50% hemolysis, 1 hour at 37° C.; read-out: LD50.
Another data set has as its system WI38. The conditions noted are these: MTT, 24 hours with peptide; normal fibroblast line.
A further data set relates to BMKC. As to the kind of experiment: Anti-cancer assay, MTT, LD50. The data set is classed as cell-based. The conditions noted are these: BMKC cloned melanoma line, 24 hours with peptide. The source says:
(§2) Numbers are LD50 values (μg/mL).

For the next data set, the system named is H1299. Description: Anti-cancer assay, MTT, LD50. The conditions noted are these: 24 hours with peptide, lung large cell carcinoma. The data set is classed as cell-based.
Text: as §2

A further data set deals with MCF7. As to the kind of experiment: Anti-cancer assay, MTT, LD50. In kind it is cell-based. The conditions noted are these: MCF7 breast adenocarcinoma line, MTT, 24 hours with peptide.
Text: as §2

In a further data set the test system is PC3. As to the kind of experiment: Anti-cancer assay, MTT, LD50. The data set is classed as cell-based. The following applies: 24 hours with peptide, prostate adenocarcinoma.
Text: as §2

A further data set has as its system SW480. As to the kind of experiment: Anti-cancer assay, MTT, LD50. The data set is classed as cell-based. The conditions noted are these: SW480 colon adenocarcinoma line, 24 hours with peptide.
Text: as §2

The subject of the next data set is HeLaS3. Description: Anti-cancer assay, MTT, LD50. In kind it is cell-based. The following applies: 24 hours with peptide, cervical carcinoma.
Text: as §2

Data set [4] relates to yeast (Saccharomyces cerevisiae). As to the kind of experiment: Antimicrobial assay I, yeast assay in RPMI 1640. In kind it is cell-based. The conditions noted are these: RPMI 1640 media.
In the next data set the test system is P. aeruginosa H774. The data set is classed as cell-based, Pseudomonas aeruginosa. The following applies: P. aeruginosa H744; nalidixic acid + peptide at ¼ MIC; 0.5 or less = synergy. Here is the method:
as §1

Data set [5] relates to Staphylococcus aureus ATCC 6538. As to the kind of experiment: Antimicrobial assay I, MIC by OD measurement. The data set is classed as cell-based. The following applies: 37° C. for 24 hours, absorbance 620 nm.
Data set [6] relates to Pseudomonas aeruginosa ATCC 9027. As to the kind of experiment: Antimicrobial assay I, MIC by OD measurement. The following applies: 37° C. for 24 hours, absorbance 620 nm. In kind it is cell-based.
A further data set relates to S. typhimurium 14028S. The data set is classed as cell-based, Salmonella typhimurium. The conditions noted are these: Table 14.
The subject of another data set is S. epidermidis C621. The data set is classed as cell-based, Staphylococcus epidermidis. The following applies: Table 15.
The test system of a further data set is E. coli UB1005. The data set is classed as cell-based, Escherichia coli. The conditions noted are these: Table 14.
For another data set, the system named is S. aureus (MRSA). In kind it is cell-based, Staphylococcus aureus. The conditions noted are these: Table 15, strain SAP0017; in µg/mL.
Another data set concerns Candida albicans 105. In kind it is cell-based. The conditions noted are these: Table 15; in µg/mL.
Data set [7] has as its system P. aeruginosa H374. The data set is classed as cell-based, Pseudomonas aeruginosa. The following applies: Table 14; in µg/mL.
Data set [8] deals with Pseudomonas aeruginosa H187. The data set is classed as cell-based. The conditions noted are these: Table 15; in µg/mL.
Setting [9] is: LD50 WI38, WI38 normal lung fibroblast line, MTT.

Where two headings read alike, the source gives them in different places. No end group written: not given here.

This is an account of results in US20050209157A1, “Short bioactive peptides and methods for their use” (priority 2001, published 2005).

By CC50 is commonly meant the concentration that lowers cell viability or growth by half.

“GIGKFLHAAKKFAKAFVAEIMNS-NH2 [P300, reference compound]” displayed a CC50 at 24 h in the data set “in vitro [1]” (setting [9]) of 52 µg/mL. In addition, the “MIC Cm-comb.” value in the data set with P. aeruginosa H374 [2] (MIC of chloramphenicol with peptide at ¼ MIC) stood at 16 µg/mL. For the same substance, the results for the “MIC Nal-comb.” value in the data set on P. aeruginosa H374 [2] (MIC of nalidixic acid with peptide at ¼ MIC) and in the data set on P. aeruginosa were 312 µg/mL and 156 µg/mL, respectively. In addition, in “in vitro [3]”, the HC50 at 1 h amounted to 250 µg/mL. The “WI38 LD50” value with WI38 amounted to 52 µg/mL. Moreover, the “LD50 BMKC” value in the data set with BMKC came to 130 µg/mL. Moreover, in the data set with H1299, the “H1299 LD50” value is 60 µg/mL. Moreover, the “LD50 MCF7” value with MCF7 worked out at 22 µg/mL. Also, in the data set on PC3, the “PC3 LD50” value came out at 45 µg/mL. Besides, the “LD50 SW480” value with SW480 came out at 60 µg/mL. Moreover, in the data set with HeLaS3, the “HeLaS3 LD50” value is 125 µg/mL.
Regarding FALALKALKKLKKALKKAL-NH2 [P27], the “yeast (MIC or MFC)” value in [4] was 25 µg/mL. The 50% cytotoxic concentration (CC50) at 24 h turned out to be 37 µg/mL in “in vitro [1]” (setting [9]) and 520 µg/mL in the data set “in vitro [1]” (WI38 LD50, MTT, normal fibroblast line). For the same substance, the “FIC Index” value stood at 0.75 in the data set with P. aeruginosa H374 [2] (chloramphenicol + peptide at ¼ MIC); 0.25 with P. aeruginosa H374 [2] (nalidixic acid + peptide at ¼ MIC, FIC=0.25+MIC comb/MIC alone); 1.25 in the data set with P. aeruginosa H774. Also, the HC50 at 1 h in “in vitro [3]” is 125 µg/mL. In data set [5], the “staph6538 (MIC)” value came to 10 µg/mL. The “paerug9027 (MIC)” value in data set [6] was 10 µg/mL. Moreover, the “LD50 BMKC” value with BMKC stood at 44 µg/mL. Besides, in the data set with MCF7, the “LD50 MCF7” value was 14 µg/mL. Also, the “LD50 SW480” value in the data set with SW480 came to 26 µg/mL.
For the substance FAFGKGIGKVGKKLL-NH2 [P133 (95)], in the data set with S. typhimurium 14028S, the MIC S. typhimurium 14028S was > 128 µg/mL. For the same substance, in the data set with S. epidermidis C621, the MIC S. epidermidis C621 was > 128 µg/mL. Moreover, the MIC E. coli UB1005 with E. coli UB1005 was > 128 µg/mL. In addition, the “MIC S. aureus SAP0017” value in the data set with S. aureus (MRSA) is >128. Also, in the data set on Candida albicans 105, the “MIC C. albicans 105” value is recorded as >128. Further, the “MIC P. aeruginosa H374” value in the data set on P. aeruginosa H374 [7] was >128. In addition, in data set [8], the “MIC P. aeruginosa H187” value was >128.
For KWKLAKKALALL-NH2 [P142 (104)], the MIC S. typhimurium 14028S against S. typhimurium 14028S was found to be 128 µg/mL. The substance also registered an MIC S. epidermidis C621 with S. epidermidis C621 of 128 µg/mL. Moreover, the MIC E. coli UB1005 in the data set on E. coli UB1005 stood at 64 µg/mL. Also, in the data set on S. aureus (MRSA), the “MIC S. aureus SAP0017” value is >128. Also, in the data set on Candida albicans 105, the “MIC C. albicans 105” value came to 64. Moreover, the “MIC P. aeruginosa H374” value in the data set with P. aeruginosa H374 [7] is >128. The “MIC P. aeruginosa H187” value in data set [8] is given as >128.
Take FALLKL-NH2 [P168 (129)]: the MIC S. typhimurium 14028S with S. typhimurium 14028S was > 128 µg/mL. This substance also showed an MIC S. epidermidis C621 against S. epidermidis C621 of 128 µg/mL. In the data set with E. coli UB1005, this substance showed an MIC E. coli UB1005 of 128 µg/mL. The “MIC S. aureus SAP0017” value against S. aureus (MRSA) is recorded as >128. The “MIC C. albicans 105” value against Candida albicans 105 amounted to 128. Moreover, in the data set on P. aeruginosa H374 [7], the “MIC P. aeruginosa H374” value is 128. The “MIC P. aeruginosa H187” value in data set [8] is 128.
In the case of FAKLLFKALKKAL-NH2 [P112 (76)], the MIC S. typhimurium 14028S in the data set on S. typhimurium 14028S is > 128 µg/mL. In the data set with S. epidermidis C621, this substance yielded an MIC S. epidermidis C621 of 64 µg/mL. The MIC E. coli UB1005 against E. coli UB1005 is > 128 µg/mL. The “MIC S. aureus SAP0017” value with S. aureus (MRSA) is given as >128. Further, the “MIC C. albicans 105” value against Candida albicans 105 is listed as 128. The “MIC P. aeruginosa H374” value in the data set with P. aeruginosa H374 [7] is reported as >128. Further, the “MIC P. aeruginosa H187” value in [8] was >128.
As to FAKLLAKKLL-NH2 [P57 (37)], the MIC S. typhimurium 14028S in the data set on S. typhimurium 14028S is > 128 µg/mL. In addition, the MIC S. epidermidis C621 in the data set on S. epidermidis C621 was > 128 µg/mL. Further, in the data set on E. coli UB1005, the MIC E. coli UB1005 is > 128 µg/mL. For the same substance, the “MIC S. aureus SAP0017” value in the data set with S. aureus (MRSA) is listed as >128. For the same substance, the “MIC C. albicans 105” value with Candida albicans 105 came to 128. In addition, in the data set with P. aeruginosa H374 [7], the “MIC P. aeruginosa H374” value is >128. Further, the “MIC P. aeruginosa H187” value in [8] was >128.
Take FAKLLAKLAK-NH2 [P123 (85)]: the MIC S. typhimurium 14028S in the data set on S. typhimurium 14028S is > 128 µg/mL. In addition, the MIC S. epidermidis C621 in the data set on S. epidermidis C621 is 16 µg/mL. This substance also showed an MIC E. coli UB1005 in the data set with E. coli UB1005 of 64 µg/mL. Further, the “MIC S. aureus SAP0017” value with S. aureus (MRSA) is listed as >128. The “MIC C. albicans 105” value in the data set with Candida albicans 105 is recorded as 64. In addition, the “MIC P. aeruginosa H374” value in the data set with P. aeruginosa H374 [7] is recorded as >128. Also, the “MIC P. aeruginosa H187” value in data set [8] is on record as >128.
